Experimental data from US9309222B2, “Phenyl linked quinolinyl modulators of RORγt” (Janssen Pharmaceutica NV, priority 2012, dated 2016).
pIC50, pKd: −log10 of the molar value. Counter-ions that a name gives are not always drawn.

Columns and labels:
[1] = target: T1, human RORγt ligand binding domain (RORγt LBD) (Homo sapiens, UniProt P51449); assay: RORγt ThermoFluor assay (thermal shift, ligand binding affinity); settings: estimated from concentration response of thermal shift
T1 construct: His-tag (N); TurboTEV protease cleavage site (ENLYFQG) (N); made in house; host or cells: E. coli (pHIS1, modified pET vector)
T1 sequence (P51449 with tags, fused parts or gaps): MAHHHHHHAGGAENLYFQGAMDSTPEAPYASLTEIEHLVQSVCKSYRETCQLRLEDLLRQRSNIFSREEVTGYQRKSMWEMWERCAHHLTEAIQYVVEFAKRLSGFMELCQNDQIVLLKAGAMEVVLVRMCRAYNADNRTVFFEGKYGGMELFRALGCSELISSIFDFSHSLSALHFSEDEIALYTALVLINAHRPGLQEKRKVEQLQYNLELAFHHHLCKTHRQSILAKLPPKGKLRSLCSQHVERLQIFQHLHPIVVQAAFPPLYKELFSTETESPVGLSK
How it was run: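 Thermal shift of 0.065 mg/mL RORγt with 60 μM 1,8-ANS in 100 mM Hepes pH 7.0, 10 mM NaCl, 2.5 mM GSH, 0.002% Tween-20. Compounds in 1:2 series from 10 mM DMSO stock. Dye fluorescence (500 nm emission) tracked versus temperature; ΔTm used to derive KD.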

[2] = target: T2, human RORγt LBD (Homo sapiens, UniProt P51449); assay: RORγt reporter assay (GAL4-RORγt LBD luciferase in HEK293T cells); type: cell-based; settings: for pIC50: 24 hours compound treatment; for inhibition at 6 µM: HEK-293T, read-out: RORγt reporter Assay, % inhibition @ 6 μM, HEK293T cells, 6 μM compound
T2 construct: expressed in transfected cells
T2 sequence (P51449 258-518): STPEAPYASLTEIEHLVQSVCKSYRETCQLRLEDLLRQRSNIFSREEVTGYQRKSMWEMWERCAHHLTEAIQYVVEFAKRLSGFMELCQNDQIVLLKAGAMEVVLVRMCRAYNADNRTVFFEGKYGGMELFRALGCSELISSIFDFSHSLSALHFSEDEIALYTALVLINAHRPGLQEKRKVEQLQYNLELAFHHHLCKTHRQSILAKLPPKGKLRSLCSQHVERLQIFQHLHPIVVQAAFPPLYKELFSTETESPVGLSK
How it was run: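 HEK293T cells transiently co-transfected with pBIND (GAL4 DBD fused to wild-type human RORγt LBD, plus SV40-driven renilla luciferase) and pGL4.31 GAL4-responsive firefly luciferase reporter. Plated in phenol-red-free DMEM with 5% lipid-reduced FCS and treated with compound for 24 h. Firefly/renilla luminescence ratio plotted against compound concentration.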

[3] = test system: IL-17 production by CD4 T cells; assay: Human Th17 assay (IL-17 production by CD4 T cells under Th17 differentiation conditions); type: cell-based; settings: IL-17 in supernatant after 3 days
How it was run: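 Primary CD4+ T cells from healthy-donor PBMC, preincubated 1 h with titrated compound (0.2% DMSO), then activated with anti-CD3/CD28 beads plus anti-IL4, anti-IFNγ, IL1β, IL23, IL6, TGFβ and IL2.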

Row | Structure (SMILES) | pKd [1] | pIC50 ([2]; HEK293T cells) | inhibition at 6 µM [2] [%] | pIC50 ([3]; Homo sapiens, CD4+ T, 72 h) | RORγt reporter Assay, % inhibition @ 6 μM ([2]; HEK293T cells, 6 μM compound) [%] | pIC50 [3]
1 | Cn1cncc1C(O)(c1ccc2nc(Cl)c(-c3ccccc3)c(Cl)c2c1)c1cnccn1 (stereo not shown) [Example 122, (2,4-Dichloro-3-phenylquinolin-6-yl)(1-methyl-1H-imidazol-5-yl)(pyrazin-2-yl)methanol] | 6.60 | 6.33 | 91 | 6.30 |  | 
2 | OC(c1ccc(Cl)cc1)(c1cncnc1)c1ccc2nc(Cl)c(-c3ccccc3)c(Cl)c2c1 (stereo not shown) [Example 124, (4-Chlorophenyl)(2,4-dichloro-3-phenylquinolin-6-yl)(pyrimidin-5-yl)methanol] | 6.92 | 6.66 | 100 | 6.04 |  | 
3 | COC(c1ccncc1)(c1ccc2nc(N(C)C)c(-c3ccccc3)c(Cl)c2c1)c1cncn1C (stereo not shown) [Example 128, 4-Chloro-6-(methoxy(1-methyl-1H-imidazol-5-yl)(pyridin-4-yl)methyl)-N,N-dimethyl-3-phenylquinolin-2-amine•TFA] | 7.01 | 6.85 | 98 | 6.62 |  | 
4 | COc1ccc(C(O)(c2ccc3nc(Cl)c(-c4ccccc4)c(Cl)c3c2)c2c(C)noc2C)cn1 (stereo not shown) [Example 129, (2,4-Dichloro-3-phenylquinolin-6-yl)(3,5-dimethylisoxazol-4-yl)(6-methoxypyridin-3-yl)methanol•TFA] | 8.21 | 6.80 | 100 | 7.10 |  | 
5 | COc1ccc(C(O)(c2ccc3nc(Cl)c(-c4ccccc4)c(Cl)c3c2)c2cc(C)no2)cn1 (stereo not shown) [Example 131, (2,4-Dichloro-3-phenylquinolin-6-yl)(6-methoxypyridin-3-yl)(3-methylisoxazol-5-yl)methanol•TFA] | 7.59 | 7.04 | 100 | 6.68 |  | 
6 | Cc1cc(C(O)(c2ccc3nc(Cl)c(-c4ccccc4)c(Cl)c3c2)c2cncn2C)on1 (stereo not shown) [Example 132, (2,4-Dichloro-3-phenylquinolin-6-yl)(1-methyl-1H-imidazol-5-yl)(3-methylisoxazol-5-yl)methanol•TFA] | 7.80 | 7.32 | 103 | 6.89 |  | 
7 | Cc1cc(C(O)(c2ccc(Cl)cc2)c2ccc3nc(N(C)C)c(-c4ccccc4)c(Cl)c3c2)on1 (stereo not shown) [Example 134, (4-Chloro-2-(dimethylamino)-3-phenylquinolin-6-yl)(4-chlorophenyl)(3-methylisoxazol-5-yl)methanol •TFA] | 6.54 | 6.28 | 96 | 5.96 |  | 
8 | Cc1ncc(C(O)(c2ccc(Cl)cc2)c2ccc3nc(C#N)c(-c4ccccc4)c(Cl)c3c2)n1C (stereo not shown) [Example 139, 4-Chloro-6-((4-chlorophenyl)(1,2-dimethyl-1H-imidazol-5-yl)(hydroxy)methyl)-3-phenylquinoline-2-carbonitrile•TFA] | 7.21 | 6.51 | 102 | 6.46 |  | 
9 | Cc1nc(C(O)(c2ccc3nc(Cl)c(-c4ccccc4)c(Cl)c3c2)c2cncn2C)cs1 (stereo not shown) [Example 140, (2,4-Dichloro-3-phenylquinolin-6-yl)(1-methyl-1H-imidazol-5-yl)(2-methylthiazol-4-yl)methanol] | 6.25 | 6.49 | 105 | 5.74 |  | 
10 | Cn1c(C(O)(c2ccc(Cl)cc2)c2ccc3nc(Cl)c(-c4ccccc4)c(Cl)c3c2)cnc1Cl (stereo not shown) [Example 141, (2-Chloro-1-methyl-1H-imidazol-5-yl)(4-chlorophenyl)(2,4-dichloro-3-phenylquinolin-6-yl)methanol] | 6.21 | 6.68 | 99 | 5.92 |  | 
11 | Cc1ccc(C(O)(c2ccc3nc(Cl)c(-c4ccccc4)c(Cl)c3c2)c2cncn2C)c(C)n1 (stereo not shown) [Example 142, (2,4-Dichloro-3-phenylquinolin-6-yl)(2,6-dimethylpyridin-3-yl)(1-methyl-1H-imidazol-5-yl)methanol] | 8.12 | 7.04 | 105 | 6.85 |  | 
12 | CSc1ncc(C(O)(c2ccc(Cl)cc2)c2ccc3nc(Cl)c(-c4ccccc4)c(Cl)c3c2)n1C (stereo not shown) [Example 145, (4-Chlorophenyl)(2,4-dichloro-3-phenylquinolin-6-yl)(1-methyl-2-(methylthio)-1H-imidazol-5-yl)methanol] | 5.68 | 6.60 | 93 | 5.92 |  | 
13 | OC(c1ccc(Cl)cc1)(c1cccnc1)c1ccc2nc(-c3cncnc3)c(-c3ccccc3)c(Cl)c2c1 (stereo not shown) [Example 152, (4-Chloro-3-phenyl-2-(pyrimidin-5-yl)quinolin-6-yl)(4-chlorophenyl)(pyridin-3-yl)methanol] | 6.11 | 6.46 | 97 | 5.92 |  | 
14 | Cn1cncc1C(O)(c1cccnc1)c1cc(F)c2nc(Cl)c(-c3ccccc3)c(Cl)c2c1 (stereo not shown) [Example 154, (2,4-Dichloro-8-fluoro-3-phenylquinolin-6-yl)(1-methyl-1H-imidazol-5-yl)(pyridin-3-yl)methanol•TFA] | 6.92 | 6.01 | 90 | 5.72 |  | 
15 | Cc1ccc(C(O)(c2cc(C)c3nc(Cl)c(-c4ccccc4)c(Cl)c3c2)c2sccc2C)cn1 (stereo not shown) [Example 158, (2,4-Dichloro-8-methyl-3-phenylquinolin-6-yl)(6-methylpyridin-3-yl)(3-methylthiophen-2-yl)methanol] | 5.70 | 6.31 | 79 | < 5.22 |  | 
16 | Cc1cc(C(O)(c2cc(C)c3nc(Cl)c(-c4ccccc4)c(Cl)c3c2)c2cncn2C)ccn1 (stereo not shown) [Example 159, (2,4-Dichloro-8-methyl-3-phenylquinolin-6-yl)(1-methyl-1H-imidazol-5-yl)(2-methylpyridin-4-yl)methanol•TFA] | 8.92 | 7.77 | 93 | 7.12 |  | 
17 | Cc1cc(C(O)(c2ccnc(C(F)(F)F)c2)c2cncn2C)cc2c(Cl)c(-c3ccccc3)c(Cl)nc12 (stereo not shown) [Example 160, (2,4-Dichloro-8-methyl-3-phenylquinolin-6-yl)(1-methyl-1H-imidazol-5-yl)(2-(trifluoromethyl)pyridin-4-yl)methanol•TFA] | 8.21 | 6.92 | 97 | 6.16 |  | 
18 | Cn1cncc1C(O)(c1ccc(Cl)cc1)c1cc2c(Cl)c(-c3ccccc3)c(Cl)nc2cc1F (stereo not shown) [Example 161, (4-Chlorophenyl)(2,4-dichloro-7-fluoro-3-phenylquinolin-6-yl)(1-methyl-1H-imidazol-5-yl)methanol•TFA] | 7.11 | 6.77 | 104 | 6.44 |  | 
19 | Cn1cncc1C(O)(c1ccncc1)c1ccc2nc(C(F)(F)F)c(-c3ccccc3)c(C(F)(F)F)c2c1 (stereo not shown) [Example 164, (1-Methyl-1H-imidazol-5-yl)(3-phenyl-2,4-bis(trifluoromethyl)quinolin-6-yl)(pyridin-4-yl)methanol•TFA] | 8.92 | 7.74 | 98 | 7.59 |  | 
20 | O=C(O)C(F)(F)F.OC(c1cccnc1)(c1cccc(Cl)c1)c1ccc2nc(C(F)(F)F)c(-c3ccccc3)c(C(F)(F)F)c2c1 (stereo not shown) [Example 165, (3-Chlorophenyl)(3-phenyl-2,4-bis(trifluoromethyl)quinolin-6-yl)(pyridin-3-yl)methanol•TFA] | 8.62 | 7.32 |  |  | 98 | 7.01
21 | [O-][n+]1cccc(C(O)(c2cccc(Cl)c2)c2ccc3nc(C(F)(F)F)c(-c4ccccc4)c(C(F)(F)F)c3c2)c1 (stereo not shown) [Example 166, 3-((3-Chlorophenyl)(hydroxy)(3-phenyl-2,4-bis(trifluoromethyl)quinolin-6-yl)methyl)pyridine 1-oxide•TFA] | 7.44 | 6.74 | 103 | 6.82 |  | 
22 | OC(c1ccccc1)(c1cccnc1)c1ccc2nc(C(F)(F)F)c(-c3ccccc3)c(C(F)(F)F)c2c1 (stereo not shown) [Example 170, Phenyl(3-phenyl-2,4-bis(trifluoromethyl)quinolin-6-yl)(pyridin-3-yl)methanol] | 8.38 | 7.46 | 98 | 7.02 |  | 
